Results on 24 molecules are retold here after ChEMBL document CHEMBL3817808, “Enlarging the chemical space of anti-leishmanials: a structureactivity relationship study of peptoids against Leishmania mexicana, a causative agent of cutaneous leishmaniasis” (Medchemcomm, 2016).

The subject of experiment [1] is Leishmania mexicana. Kind of experiment: Antileishmanial activity against Leishmania mexicana MNYC/BZ/62/M379 promastigotes assessed as parasite viability measured after 1 hr by alamarBlue staining based fluorescence analysis. The format is functional. The conditions noted are these: MNYC/BZ/62/M379, 1 h, read-out: ED50 (the source's name). A general note: Alamar Blue is a resazurin reagent that responds to reducing activity.

Experiment [2] relates to Leishmania mexicana. Kind of experiment: Antileishmanial activity against axenic amastigote form of Leishmania mexicana MNYC/BZ/62/M379 assessed as parasite viability measured after 1 hr by alamarBlue staining based fluorescence analysis. The format is functional. The settings on record: MNYC/BZ/62/M379, 1 h, read-out: ED50 (the source's name).

SMILES strings stand for the structures. Non-standard residues stand in square brackets, D forms with d. Residues, ends and D or L forms follow the SMILES beside them. Gly(Nα-4-Cl-benzyl) = O=C(O)CNCc1ccc(Cl)cc1; N(4-F-Bzl)Gly = O=C(O)CNCc1ccc(F)cc1; Gly(N-(CH2)6NH2) = NCCCCCCNCC(=O)O; Gly(N-2-aminoethyl) = NCCNCC(=O)O; Nspe = C[C@H](NCC(=O)O)c1ccccc1; Nphe = O=C(O)CNCc1ccccc1; Nlys = NCCCCNCC(=O)O

As to `COc1ccc(CN(CC(N)=O)C(=O)CN(Cc2ccc(OC)cc2)C(=O)CN(CCCCN)C(=O)CN(Cc2ccc(OC)cc2)C(=O)CN(Cc2ccc(OC)cc2)C(=O)CNCCCCN)cc1`, the EC50 in the experiment with Leishmania mexicana [1] and in the experiment on Leishmania mexicana [2] was > 100 µM each time.

Turning to `C[C@@H](c1ccccc1)N(CC(N)=O)C(=O)CN(C(=O)CN(CCCCCCN)C(=O)CN(C(=O)CN(C(=O)CNCCCCCCN)[C@@H](C)c1ccccc1)[C@@H](C)c1ccccc1)[C@@H](C)c1ccccc1`, the EC50 in the experiment on Leishmania mexicana [1] and in the experiment with Leishmania mexicana [2] was > 100 µM throughout.

In the case of `COc1ccc(CN(CC(N)=O)C(=O)CN(Cc2ccc(OC)cc2)C(=O)CN(CCCCN)C(=O)CN(Cc2ccc(OC)cc2)C(=O)CN(Cc2ccc(OC)cc2)C(=O)CN(CCCCN)C(=O)CN(Cc2ccc(OC)cc2)C(=O)CN(Cc2ccc(OC)cc2)C(=O)CNCCCCN)cc1`, the EC50 in the experiment on Leishmania mexicana [1] and in the experiment with Leishmania mexicana [2] was > 100 µM in each case.

As for `C[C@@H](c1ccccc1)N(CC(N)=O)C(=O)CN(C(=O)CN(CCCCN)C(=O)CN(Cc1ccc(F)cc1)C(=O)CN(Cc1ccc(F)cc1)C(=O)CNCCCCN)[C@@H](C)c1ccccc1`, the EC50 in the experiment with Leishmania mexicana [1] and with Leishmania mexicana [2] was > 100 µM each time.

For the molecule `NCCCCNCC(=O)N(CC(=O)N(CC(=O)N(CCCCN)CC(=O)N(CC(=O)N(CC(=O)N(CCCCN)CC(=O)N(CC(=O)N(CC(N)=O)Cc1cccc(F)c1)Cc1cccc(F)c1)Cc1cccc(F)c1)Cc1cccc(F)c1)Cc1cccc(F)c1)Cc1cccc(F)c1`, the results for the EC50 with Leishmania mexicana [1] and in the experiment on Leishmania mexicana [2] were 17 µM and > 100 µM, respectively.

Consider `COc1ccc(CN(CC(N)=O)C(=O)CN(Cc2ccc(OC)cc2)C(=O)CN(CCCCN)C(=O)CN(Cc2ccc(OC)cc2)C(=O)CN(Cc2ccc(OC)cc2)C(=O)CN(CCCCN)C(=O)CN(Cc2ccc(OC)cc2)C(=O)CN(Cc2ccc(OC)cc2)C(=O)CN(CCCCN)C(=O)CN(Cc2ccc(OC)cc2)C(=O)CN(Cc2ccc(OC)cc2)C(=O)CNCCCCN)cc1`, for which the figures for the EC50 with Leishmania mexicana [1] and in the experiment with Leishmania mexicana [2] were 42 µM and > 100 µM, respectively.

In the case of `NCCCCNCC(=O)N(CC(=O)N(CC(=O)N(CCCCN)CC(=O)N(CC(=O)N(CC(=O)N(CCCCN)CC(=O)N(CC(=O)N(CC(N)=O)Cc1ccccc1)Cc1ccccc1)Cc1ccccc1)Cc1ccccc1)Cc1ccccc1)Cc1ccccc1`, the EC50 in the experiment on Leishmania mexicana [1] and in the experiment with Leishmania mexicana [2] was > 100 µM each time.

For the molecule `C[C@@H](c1ccccc1)N(CC(N)=O)C(=O)CN(C(=O)CN(CCN)C(=O)CN(C(=O)CN(C(=O)CNCCN)[C@@H](C)c1ccccc1)[C@@H](C)c1ccccc1)[C@@H](C)c1ccccc1`, the EC50 with Leishmania mexicana [1] and in the experiment on Leishmania mexicana [2] was > 100 µM each time.

Turning to `C[C@@H](c1ccccc1)N(CC(N)=O)C(=O)CN(Cc1ccc(F)cc1)C(=O)CN(CCCCN)C(=O)CN(C(=O)CN(Cc1ccc(F)cc1)C(=O)CNCCCCN)[C@@H](C)c1ccccc1`, the EC50 with Leishmania mexicana [1] and in the experiment with Leishmania mexicana [2] was > 100 µM throughout.

In the case of `NCCCCNCC(=O)N(CC(=O)N(CC(=O)N(CCCCN)CC(=O)N(CC(=O)N(CC(=O)N(CCCCN)CC(=O)N(CC(=O)N(CC(=O)N(CCCCN)CC(=O)N(CC(=O)N(CC(N)=O)Cc1cccc(F)c1)Cc1cccc(F)c1)Cc1cccc(F)c1)Cc1cccc(F)c1)Cc1cccc(F)c1)Cc1cccc(F)c1)Cc1cccc(F)c1)Cc1cccc(F)c1`, the EC50 with Leishmania mexicana [1] came out at 14 µM; in the experiment on Leishmania mexicana [2], 69 µM.

For the molecule `NCCCCNCC(=O)N(CC(=O)N(CC(=O)N(CCCCN)CC(=O)N(CC(=O)N(CC(N)=O)Cc1cccc(F)c1)Cc1cccc(F)c1)Cc1cccc(F)c1)Cc1cccc(F)c1`, the EC50 with Leishmania mexicana [1] and in the experiment with Leishmania mexicana [2] was > 100 µM each time.

On to `NCCNCC(=O)N(CC(=O)N(CC(=O)N(CCN)CC(=O)N(CC(=O)N(CC(N)=O)Cc1ccccc1)Cc1ccccc1)Cc1ccccc1)Cc1ccccc1` (H-[Gly(N-2-aminoethyl)][Nphe][Nphe][Gly(N-2-aminoethyl)][Nphe][Nphe]-NH2), for which the EC50 with Leishmania mexicana [1] and in the experiment with Leishmania mexicana [2] was > 100 µM throughout.

Consider `NCCNCC(=O)N(CC(=O)N(CC(=O)N(CCN)CC(=O)N(CC(=O)N(CC(=O)N(CCN)CC(=O)N(CC(=O)N(CC(N)=O)Cc1ccccc1)Cc1ccccc1)Cc1ccccc1)Cc1ccccc1)Cc1ccccc1)Cc1ccccc1` (H-[Gly(N-2-aminoethyl)][Nphe][Nphe][Gly(N-2-aminoethyl)][Nphe][Nphe][Gly(N-2-aminoethyl)][Nphe][Nphe]-NH2), for which the EC50 in the experiment with Leishmania mexicana [1] and in the experiment with Leishmania mexicana [2] was > 100 µM in each case.

`NCCCCCCNCC(=O)N(CC(=O)N(CC(=O)N(CCCCCCN)CC(=O)N(CC(=O)N(CC(N)=O)Cc1ccccc1)Cc1ccccc1)Cc1ccccc1)Cc1ccccc1` (H-[Gly(N-(CH2)6NH2)][Nphe][Nphe][Gly(N-(CH2)6NH2)][Nphe][Nphe]-NH2): the EC50 with Leishmania mexicana [1] and with Leishmania mexicana [2] was > 100 µM in each case.

For the molecule `NCCCCCCNCC(=O)N(CC(=O)N(CC(=O)N(CCCCCCN)CC(=O)N(CC(=O)N(CC(=O)N(CCCCCCN)CC(=O)N(CC(=O)N(CC(N)=O)Cc1ccccc1)Cc1ccccc1)Cc1ccccc1)Cc1ccccc1)Cc1ccccc1)Cc1ccccc1` (H-[Gly(N-(CH2)6NH2)][Nphe][Nphe][Gly(N-(CH2)6NH2)][Nphe][Nphe][Gly(N-(CH2)6NH2)][Nphe][Nphe]-NH2), the EC50 in the experiment on Leishmania mexicana [1] and in the experiment with Leishmania mexicana [2] was > 100 µM throughout.

As to `NCCCCCCNCC(=O)N(CC(=O)N(CC(=O)N(CCCCCCN)CC(=O)N(CC(=O)N(CC(=O)N(CCCCCCN)CC(=O)N(CC(=O)N(CC(=O)N(CCCCCCN)CC(=O)N(CC(=O)N(CC(N)=O)Cc1ccccc1)Cc1ccccc1)Cc1ccccc1)Cc1ccccc1)Cc1ccccc1)Cc1ccccc1)Cc1ccccc1)Cc1ccccc1` (H-[Gly(N-(CH2)6NH2)][Nphe][Nphe][Gly(N-(CH2)6NH2)][Nphe][Nphe][Gly(N-(CH2)6NH2)][Nphe][Nphe][Gly(N-(CH2)6NH2)][Nphe][Nphe]-NH2), the values for the EC50 in the experiment on Leishmania mexicana [1] and in the experiment with Leishmania mexicana [2] were 21 µM and > 100 µM, respectively.

With `C[C@@H](c1ccccc1)N(CC(N)=O)C(=O)CN(C(=O)CN(CCCCCCN)C(=O)CN(C(=O)CN(C(=O)CN(CCCCCCN)C(=O)CN(C(=O)CN(C(=O)CNCCCCCCN)[C@@H](C)c1ccccc1)[C@@H](C)c1ccccc1)[C@@H](C)c1ccccc1)[C@@H](C)c1ccccc1)[C@@H](C)c1ccccc1` (H-[Gly(N-(CH2)6NH2)][Nspe][Nspe][Gly(N-(CH2)6NH2)][Nspe][Nspe][Gly(N-(CH2)6NH2)][Nspe][Nspe]-NH2), the EC50 was 25 µM in the experiment on Leishmania mexicana [1] and > 100 µM in the experiment on Leishmania mexicana [2].

In the case of `C[C@@H](c1ccccc1)N(CC(N)=O)C(=O)CN(C(=O)CN(CCCCCCN)C(=O)CN(C(=O)CN(C(=O)CN(CCCCCCN)C(=O)CN(C(=O)CN(C(=O)CN(CCCCCCN)C(=O)CN(C(=O)CN(C(=O)CNCCCCCCN)[C@@H](C)c1ccccc1)[C@@H](C)c1ccccc1)[C@@H](C)c1ccccc1)[C@@H](C)c1ccccc1)[C@@H](C)c1ccccc1)[C@@H](C)c1ccccc1)[C@@H](C)c1ccccc1` (H-[Gly(N-(CH2)6NH2)][Nspe][Nspe][Gly(N-(CH2)6NH2)][Nspe][Nspe][Gly(N-(CH2)6NH2)][Nspe][Nspe][Gly(N-(CH2)6NH2)][Nspe][Nspe]-NH2), the EC50 in the experiment on Leishmania mexicana [1] is 11 µM; in the experiment with Leishmania mexicana [2] it was > 100 µM.

`NCCCCNCC(=O)N(CC(=O)N(CC(=O)N(CCCCN)CC(=O)N(CC(=O)N(CC(N)=O)Cc1ccc(Cl)cc1)Cc1ccc(Cl)cc1)Cc1ccc(Cl)cc1)Cc1ccc(Cl)cc1` (H-[Nlys][Gly(Nα-4-Cl-benzyl)][Gly(Nα-4-Cl-benzyl)][Nlys][Gly(Nα-4-Cl-benzyl)][Gly(Nα-4-Cl-benzyl)]-NH2): the EC50 in the experiment with Leishmania mexicana [1] was 29 µM; in the experiment on Leishmania mexicana [2] it was > 100 µM.

Take `NCCCCNCC(=O)N(CC(=O)N(CC(=O)N(CCCCN)CC(=O)N(CC(=O)N(CC(=O)N(CCCCN)CC(=O)N(CC(=O)N(CC(N)=O)Cc1ccc(Cl)cc1)Cc1ccc(Cl)cc1)Cc1ccc(Cl)cc1)Cc1ccc(Cl)cc1)Cc1ccc(Cl)cc1)Cc1ccc(Cl)cc1` (H-[Nlys][Gly(Nα-4-Cl-benzyl)][Gly(Nα-4-Cl-benzyl)][Nlys][Gly(Nα-4-Cl-benzyl)][Gly(Nα-4-Cl-benzyl)][Nlys][Gly(Nα-4-Cl-benzyl)][Gly(Nα-4-Cl-benzyl)]-NH2): the values for the EC50 with Leishmania mexicana [1] and in the experiment with Leishmania mexicana [2] were 22 µM and 85 µM, respectively.

For the molecule `NCCCCNCC(=O)N(CC(=O)N(CC(=O)N(CCCCN)CC(=O)N(CC(=O)N(CC(=O)N(CCCCN)CC(=O)N(CC(=O)N(CC(=O)N(CCCCN)CC(=O)N(CC(=O)N(CC(N)=O)Cc1ccc(Cl)cc1)Cc1ccc(Cl)cc1)Cc1ccc(Cl)cc1)Cc1ccc(Cl)cc1)Cc1ccc(Cl)cc1)Cc1ccc(Cl)cc1)Cc1ccc(Cl)cc1)Cc1ccc(Cl)cc1` (H-[Nlys][Gly(Nα-4-Cl-benzyl)][Gly(Nα-4-Cl-benzyl)][Nlys][Gly(Nα-4-Cl-benzyl)][Gly(Nα-4-Cl-benzyl)][Nlys][Gly(Nα-4-Cl-benzyl)][Gly(Nα-4-Cl-benzyl)][Nlys][Gly(Nα-4-Cl-benzyl)][Gly(Nα-4-Cl-benzyl)]-NH2), the EC50 with Leishmania mexicana [1] was determined as 28 µM; in the experiment with Leishmania mexicana [2], 44 µM.

For `NCCCCNCC(=O)N(CC(=O)N(CC(=O)N(CCCCN)CC(=O)N(CC(=O)N(CC(N)=O)Cc1ccc(F)cc1)Cc1ccc(F)cc1)Cc1ccc(F)cc1)Cc1ccc(F)cc1` (H-[Nlys][N(4-F-Bzl)Gly][N(4-F-Bzl)Gly][Nlys][N(4-F-Bzl)Gly][N(4-F-Bzl)Gly]-NH2), the EC50 with Leishmania mexicana [1] and in the experiment with Leishmania mexicana [2] was > 100 µM throughout.

Regarding `NCCCCNCC(=O)N(CC(=O)N(CC(=O)N(CCCCN)CC(=O)N(CC(=O)N(CC(=O)N(CCCCN)CC(=O)N(CC(=O)N(CC(N)=O)Cc1ccc(F)cc1)Cc1ccc(F)cc1)Cc1ccc(F)cc1)Cc1ccc(F)cc1)Cc1ccc(F)cc1)Cc1ccc(F)cc1` (H-[Nlys][N(4-F-Bzl)Gly][N(4-F-Bzl)Gly][Nlys][N(4-F-Bzl)Gly][N(4-F-Bzl)Gly][Nlys][N(4-F-Bzl)Gly][N(4-F-Bzl)Gly]-NH2), the EC50 in the experiment with Leishmania mexicana [1] is 19 µM; with Leishmania mexicana [2] it was > 100 µM.

As for `NCCCCNCC(=O)N(CC(=O)N(CC(=O)N(CCCCN)CC(=O)N(CC(=O)N(CC(=O)N(CCCCN)CC(=O)N(CC(=O)N(CC(=O)N(CCCCN)CC(=O)N(CC(=O)N(CC(N)=O)Cc1ccc(F)cc1)Cc1ccc(F)cc1)Cc1ccc(F)cc1)Cc1ccc(F)cc1)Cc1ccc(F)cc1)Cc1ccc(F)cc1)Cc1ccc(F)cc1)Cc1ccc(F)cc1` (H-[Nlys][N(4-F-Bzl)Gly][N(4-F-Bzl)Gly][Nlys][N(4-F-Bzl)Gly][N(4-F-Bzl)Gly][Nlys][N(4-F-Bzl)Gly][N(4-F-Bzl)Gly][Nlys][N(4-F-Bzl)Gly][N(4-F-Bzl)Gly]-NH2), the results for the EC50 in the experiment with Leishmania mexicana [1] and in the experiment on Leishmania mexicana [2] were 15 µM and 75 µM, respectively.
